The values that follow are results of earlier work, collected in US10123974B2, “Sustained release formulation of a non-steroidal anti-inflammatory drug” (PACIRA PHARMACEUTICALS, INC., priority 2010, dated 2018).

For the data set the following is noted: chronic 100 mg/day systemic dosing.

On to `O=C(O)Cc1ccccc1Nc1c(Cl)cccc1Cl` [diclofenac], for which the synovial fluid levels is no more than 200 ng/mL.
